From article PMC8151276, “An Integrated Approach toward NanoBRET Tracers for Analysis of GPCR Ligand Engagement” (Molecules, 2021)

How the values were obtained:
Format in all cases: binding
F2R = target: T1, F2R (Homo sapiens, UniProt P25116); test: NanoBRET screen HiBiT-F2R in HEK293; conditions: F2R
T1 construct: purchased Promega (in-house HiBiT-GPCR construct library, NanoBRET)
T1 sequence (P25116 22-425): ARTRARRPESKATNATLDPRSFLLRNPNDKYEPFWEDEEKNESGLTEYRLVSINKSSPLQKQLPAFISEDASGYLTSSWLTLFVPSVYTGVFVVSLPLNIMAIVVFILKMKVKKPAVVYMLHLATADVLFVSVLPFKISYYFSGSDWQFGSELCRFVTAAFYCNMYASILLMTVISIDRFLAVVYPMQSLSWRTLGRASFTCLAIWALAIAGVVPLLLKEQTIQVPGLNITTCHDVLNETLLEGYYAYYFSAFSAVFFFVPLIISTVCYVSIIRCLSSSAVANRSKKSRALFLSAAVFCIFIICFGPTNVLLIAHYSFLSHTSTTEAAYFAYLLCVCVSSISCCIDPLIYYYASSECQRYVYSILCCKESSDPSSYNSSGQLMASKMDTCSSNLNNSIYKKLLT
Protocol: (§1) Each tracer candidate was screened across the entire library of HiBiT-GPCR constructs using NanoBRET as the detection modality. As depicted in Figure 4A, the specificity of interactions was evaluated through decrease in BRET due to competitive displacement of a bound tracer by excess parental compound. Each tracer was analyzed for binding to each HiBiT-GPCR fusion in the absence and in the presence of competing parental compound. Briefly, HEK293 cells were transfected with HiBiT-GPCR constructs diluted into promoterless DNA to reduce expression and maximize translocation to the cell surface. Each tracer candidate was then screened at concentrations of 1 μM and 0.1 μM across cells expressing these fusions. Cells were treated for 1.5 h with tracer either alone or in the presence of 20 μM competing parental compound (i.e., control). BRET was measured upon addition of purified LgBiT and subsequent complementation with HiBiT genetically fused to a GPCR. The specificity of interactions was assessed through a decrease in BRET signal due to competitive displacement of the bound tracer. To further gauge the robustness of these interactions, the fold response over the control (i.e., BRETtracer/BRETcontrol) was calculated. We chose a 1.5-fold response, which translates to ≥7-fold signal over noise as the minimal threshold required to score an interaction as positive. […]. Below we highlight the screening results obtained for our exemplary fluorescent tracers based on Clozapine, Amitriptyline and AZD1283.
(§2) HiBiT-GPCR DNA constructs were diluted in 10 mM Tris pH 8 to a final concentration of 0.01 μg/μL, arrayed in 96-well plates and stored at −20 °C. For transfection, HEK293 cells were suspended in Opti-MEM (without phenol red) supplemented with 2% fetal bovine serum (Seradigm) and 100 units/mL penicillin–streptomycin (Gibco) at a final concentration of 220,000 cells/mL and dispensed into white 96-well plates at 90 μL/well. Subsequent transfections and screens were carried using an Agilent Bravo Automated Liquid Handling Platform. First, the 96-well HiBiT DNA arrays were diluted 25-fold in Opti-MEM (without serum or phenol red) to a final concentration of 0.0004 μg/μL and 20 μL of the diluted DNAs were transferred into new 96-well plates. Next, promoterless carrier DNA (1 μg/μL) was diluted 25-fold (0.04 μg/μL) and then dispensed into the diluted arrays at 20 μL/well. Following brief mixing, Viafect transfection reagent (Promega) diluted 16-fold into Opti-MEM was dispensed into the plates at 40 μL/well. After mixing by pipetting, plates were incubated for 10 min on the pipetting station deck. The DNA-transfection reagent complexes were then added to plates containing cells. To facilitate the screen, 10 μL of DNA-transfection reagent complexes were added in duplicates to the top 4 and bottom 4 rows, resulting in two identical 48-well arrays per plate. Plates with transfected cells were incubated for 18–20 h at 37 °C/5% CO2. A screen of each tracer across the entire library using two different concentrations requires duplicate plates of transfected cells. Depending on the number of tracers being screened, transfections can be scaled up using the same ratios. The next day, for each tracer, four 20× screening solutions in tracer dilution buffer (Promega) were prepared: two duplicates at final concentration of 20 μM and two duplicates at a final concentration of 2 μM. A competing unmodified compound was added to one of each duplicate at a final concentration of 400 μM. The four resulting solutions were diluted 4-fold in Opti-MEM without serum or phenol red to generate 5× solutions (5 µM and 0.5 µM tracer +/− 100 μM competing compound). To screen the library, a BioTek MultiFlo FX liquid dispenser was used to dispense 22.5 µL of tracer solution to the top 4 rows and 22.5 µL tracer + competing compound solution to the 4 bottom rows. Plates were briefly mixed on an orbital shaker and incubated for 1.5 h at room temperature. […]

SSTR2 = target: T2, SSTR2 (Homo sapiens, UniProt P30874); test: NanoBRET screen HiBiT-SSTR2 in HEK293; conditions: SSTR2
T2 construct: purchased Promega (in-house HiBiT-GPCR construct library, NanoBRET)
T2 sequence (P30874 whole entry): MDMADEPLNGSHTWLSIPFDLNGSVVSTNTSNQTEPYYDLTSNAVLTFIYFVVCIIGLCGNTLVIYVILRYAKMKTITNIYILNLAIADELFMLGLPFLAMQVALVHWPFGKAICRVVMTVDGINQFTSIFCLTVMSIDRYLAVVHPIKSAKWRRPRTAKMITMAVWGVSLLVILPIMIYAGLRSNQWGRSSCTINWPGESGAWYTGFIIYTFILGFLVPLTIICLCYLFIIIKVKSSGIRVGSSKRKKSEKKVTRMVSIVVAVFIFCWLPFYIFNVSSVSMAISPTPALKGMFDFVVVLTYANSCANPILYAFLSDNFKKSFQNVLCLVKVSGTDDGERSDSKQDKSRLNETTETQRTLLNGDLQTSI
Protocol: as §1, §2

NPBWR1 = target: T3, NPBWR1 (Homo sapiens, UniProt P48145); test: NanoBRET screen HiBiT-NPBWR1 in HEK293; conditions: NPBWR1
T3 construct: purchased Promega (in-house HiBiT-GPCR construct library, NanoBRET)
T3 sequence (P48145 1-328): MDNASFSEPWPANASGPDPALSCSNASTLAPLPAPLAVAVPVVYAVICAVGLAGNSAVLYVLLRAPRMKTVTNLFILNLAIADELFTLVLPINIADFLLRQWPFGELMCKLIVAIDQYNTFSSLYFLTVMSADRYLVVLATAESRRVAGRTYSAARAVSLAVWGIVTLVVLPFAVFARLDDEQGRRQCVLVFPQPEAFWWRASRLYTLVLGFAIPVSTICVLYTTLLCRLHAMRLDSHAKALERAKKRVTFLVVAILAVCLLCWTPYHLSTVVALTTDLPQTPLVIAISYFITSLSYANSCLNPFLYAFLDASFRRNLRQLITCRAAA
Protocol: as §1, §2

EDNRA = target: T4, EDNRA (Homo sapiens, UniProt P25101); test: NanoBRET screen HiBiT-EDNRA in HEK293; conditions: EDNRA
T4 construct: purchased Promega (in-house HiBiT-GPCR construct library, NanoBRET)
T4 sequence (P25101 21-427): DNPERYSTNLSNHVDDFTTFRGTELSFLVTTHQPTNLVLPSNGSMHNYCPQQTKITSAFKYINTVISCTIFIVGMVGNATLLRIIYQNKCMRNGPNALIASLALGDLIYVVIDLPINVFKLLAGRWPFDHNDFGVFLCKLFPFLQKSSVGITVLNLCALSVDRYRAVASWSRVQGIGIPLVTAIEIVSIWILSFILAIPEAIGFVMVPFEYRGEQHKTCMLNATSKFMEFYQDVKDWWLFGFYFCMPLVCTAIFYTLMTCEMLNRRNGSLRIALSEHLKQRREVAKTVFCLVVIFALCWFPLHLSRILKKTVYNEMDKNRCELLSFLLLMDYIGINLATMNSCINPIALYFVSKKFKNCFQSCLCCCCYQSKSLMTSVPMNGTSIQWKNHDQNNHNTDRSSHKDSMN
Protocol: as §1, §2

HTR1D = target: T5, HTR1D (Homo sapiens, UniProt P28221); test: NanoBRET screen HiBiT-HTR1D in HEK293; conditions: HTR1D
T5 construct: purchased Promega (in-house HiBiT-GPCR construct library, NanoBRET)
T5 sequence (P28221 whole entry): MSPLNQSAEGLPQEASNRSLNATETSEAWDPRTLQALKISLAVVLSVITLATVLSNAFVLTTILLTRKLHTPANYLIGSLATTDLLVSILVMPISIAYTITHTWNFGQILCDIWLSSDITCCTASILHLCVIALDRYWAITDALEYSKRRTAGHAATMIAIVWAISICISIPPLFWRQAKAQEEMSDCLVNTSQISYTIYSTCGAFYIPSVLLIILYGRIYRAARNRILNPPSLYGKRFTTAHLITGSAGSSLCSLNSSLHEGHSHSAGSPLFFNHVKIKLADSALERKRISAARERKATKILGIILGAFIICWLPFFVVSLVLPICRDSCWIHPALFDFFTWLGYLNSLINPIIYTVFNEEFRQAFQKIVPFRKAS
Protocol: as §1, §2

| Compound | NanoBRET Fold Response (F2R; tracer 0.1μM) | NanoBRET Fold Response (F2R; tracer 1μM) | NanoBRET Fold Response (SSTR2; tracer 0.1μM) | NanoBRET Fold Response (SSTR2; tracer 1μM) | NanoBRET Fold Response (NPBWR1; tracer 0.1μM) | NanoBRET Fold Response (NPBWR1; tracer 1μM) | NanoBRET Fold Response (EDNRA; tracer 0.1μM) | NanoBRET Fold Response (EDNRA; tracer 1μM) | NanoBRET Fold Response (HTR1D; tracer 0.1μM) | NanoBRET Fold Response (HTR1D; tracer 1μM) | further results |
| --- | --- | --- | --- | --- | --- | --- | --- | --- | --- | --- | --- |
| CN1CCN(C2=Nc3cc(Cl)ccc3N(CC(=O)NCCOCCOCCOCCOCCNC(=O)CCc3ccc4n3[B-](F)(F)[N+]3=C(c5ccc[nH]5)C=CC3=C4)c3ccccc32)CC1 [Clozapine-c-2-NB590] |  |  |  |  |  |  |  |  |  |  | NanoBRET Fold Response (F2R; 0.1μM tracer): 0.99; NanoBRET Fold Response (F2R; 1μM tracer): 0.99; NanoBRET Fold Response (SSTR2; 0.1μM tracer): 0.97; NanoBRET Fold Response (SSTR2; 1μM tracer): 1.00; NanoBRET Fold Response (NPBWR1; 0.1μM tracer): 0.97; NanoBRET Fold Response (NPBWR1; 1μM tracer): 1.00; NanoBRET Fold Response (EDNRA; 0.1μM tracer): 0.99; NanoBRET Fold Response (EDNRA; 1μM tracer): 0.87; NanoBRET Fold Response (HTR1D; 0.1μM tracer): 1.00; NanoBRET Fold Response (HTR1D; 1μM tracer): 1.00 |
| O=C(CCOCCOCCOCCOCCNC(=O)CCc1ccc2n1[B-](F)(F)[N+]1=C(c3ccc[nH]3)C=CC1=C2)NCCCN1CCN(C2=Nc3ccccc3Oc3ccc(Cl)cc32)CC1 [Loxapine-a-2-NB590] | 0.97 | 1.05 | 1.03 | 1.31 | 1.02 | 0.93 | 1.05 | 0.85 | 1.35 | 1.74 |  |
| COc1ccccc1N1CCN(CCCCN2C(=O)c3ccc(CNC(=O)CCOCCOCCOCCOCCNC(=O)CCc4ccc5n4[B-](F)(F)[N+]4=C(c6ccc[nH]6)C=CC4=C5)cc3C2=O)CC1 [NAN-190-2-NB590] | 1.07 | 0.93 | 0.99 | 1.03 | 1.02 |  | 1.02 | 1.05 | 1.35 | 1.41 |  |
| COc1ccccc1N1CCN(CCCCN2C(=O)c3ccc(CNC(=O)CCOCCNC(=O)c4ccc(CNC(=O)CCc5ccc6n5[B-](F)(F)[N+]5=C(c7ccc[nH]7)C=CC5=C6)cc4)cc3C2=O)CC1 [NAN-190-3-NB590] | 0.97 | 1.11 | 1.00 | 1.10 | 0.92 | 0.91 | 1.01 | 1.21 | 1.11 | 1.70 |  |
| O=C(CCc1ccc2n1[B-](F)(F)[N+]1=C(c3ccc[nH]3)C=CC1=C2)NCc1ccc(C(=O)NCCOCCC(=O)N[C@@H]2CC[C@@]3(O)[C@H]4Cc5ccc(O)c6c5[C@@]3(CCN4CC3CC3)[C@H]2O6)cc1 [Naltrexone-3-NB590] | 1.02 | 0.99 | 1.06 | 0.93 | 0.92 | 1.19 | 1.00 | 0.98 | 0.53 | 0.94 |  |
| Cc1cc2c(s1)Nc1ccccc1N=C2N1CCN(CCCNC(=O)CCOCCOCCOCCOCCNC(=O)CCc2ccc3n2[B-](F)(F)[N+]2=C(c4ccc[nH]4)C=CC2=C3)CC1 [Olanzapine-a-2-NB590] | 1.01 | 0.90 | 1.03 | 0.96 | 0.99 | 1.02 | 1.02 | 1.10 | 1.03 | 1.29 |  |
| O=C(CCc1ccc2n1[B-](F)(F)[N+]1=C(c3ccc[nH]3)C=CC1=C2)NCc1ccc(C(=O)NCCOCCOCCNCC(O)COc2cccc3ccccc23)cc1 (centres unmarked) [Propranolol-3-NB590] |  |  |  |  |  |  |  |  |  |  | NanoBRET Fold Response (F2R; 0.1μM): 1.04; NanoBRET Fold Response (F2R; 1μM): 1.06; NanoBRET Fold Response (SSTR2; 0.1μM): 1.04; NanoBRET Fold Response (SSTR2; 1μM): 1.01; NanoBRET Fold Response (NPBWR1; 0.1μM): 1.03; NanoBRET Fold Response (NPBWR1; 1μM): 0.96; NanoBRET Fold Response (EDNRA; 0.1μM): 0.97; NanoBRET Fold Response (EDNRA; 1μM): 1.03; NanoBRET Fold Response (HTR1D; 0.1μM): 1.24; NanoBRET Fold Response (HTR1D; 1μM): 0.96 |
| O=C(CCc1ccc2n1[B-](F)(F)[N+]1=C(c3ccc[nH]3)C=CC1=C2)NCCOCCOCCNC(=O)OCCOCCN1CCN(C2=Nc3ccccc3Sc3ccccc32)CC1 [Quetiapine-a-2-NB590] | 1.09 | 1.41 | 1.03 | 0.77 | 1.01 | 1.04 | 1.03 | 1.04 | 1.02 | 1.32 |  |
| Cc1nc2n(c(=O)c1CCN1CCC(c3noc4cc(F)ccc34)CC1)CCCC2OC(=O)NCCOCCOCCOCCOCCNC(=O)CCc1ccc2n1[B-](F)(F)[N+]1=C(c3ccc[nH]3)C=CC1=C2 (centres unmarked) [Risperidone-2-NB590] | 0.97 | 0.78 | 0.98 | 1.01 | 1.07 | 1.06 | 1.04 | 0.97 | 1.38 | 1.86 |  |
